Results as given in patent US7651978B2, “Selective herbicides based on a substituted phenylsulphonylaminocarbonyl-triazolinone” (Arysta LifeScience North America, LLC, priority 1998, dated 2010).
Structures can show the parent of a compound that is named as a salt.

Columns and labels:
Assay type in all cases: in vivo
Avena = experiment: Pre-emergence test/greenhouse; conditions: 504 h, after three weeks, read-out: degree of damage, Avena
Method in brief: (§1)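 Seeds sown in normal soil; about 24 h later soil sprayed with active compound (acetone/alkylaryl polyglycol ether emulsion diluted in water) at set rate per area in 500 ml water per hectare. Damage scored after three weeks as % versus untreated control (0% no effect, 100% total destruction).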

Polygonum = experiment: Pre-emergence test/greenhouse; conditions: 30 g of ai./ha, after three weeks
Method in brief: as §1

Bromus = experiment: Pre-emergence test/greenhouse; conditions: 30 g of ai./ha, after three weeks
Method in brief: as §1

Alopecurus = experiment: Pre-emergence test/greenhouse; conditions: 504 h, after three weeks, read-out: degree of damage, Alopecurus
Method in brief: as §1

Setaria = experiment: Pre-emergence test/greenhouse; conditions: after three weeks
Method in brief: as §1

Setaria viridis = experiment: Post-emergence tests/outdoors (Example C, Canada); conditions: outdoors, 30 g of a.i./ha + SAS (Canplus 411), 70 WP, 5 tests
Protocol: (§2) Post-Emergence Tests/Outdoors In addition to the comparative compounds (B) and (D), the sodium salt of the compound of the formula (I) was tested under outdoor conditions in the main cultivation areas of summer wheat in Canada against economically important weeds. The small-plot experiments were carried out on cultivated land under agricultural use. Areas with particularly extensive weed growth were chosen preferably. The active compounds were applied across the area by the spray method, with an average droplet size. To produce a useful preparation of active compound, the active compounds were formulated as 70 WP (70% w/w water-dispersible powder) and applied with customary amounts of water. Wetting of the plants was improved by addition of a surface-active substance (SAS) in the concentrations recommended by the respective manufacturer. To assess the crop compatibility, from 1 to 8 weeks after the treatment, plant growth inhibitions or […] of the leaf area were assessed in % damage in comparison to the development of the untreated control. At different intervals after the treatment, the herbicidal activity was assessed as % reduction in comparison to the untreated control, based on the weed development. The figures denote: • 0%=no damage of the crops or no herbicidal effect, • 100%=total destruction of the crops or the weeds.

Thlaspi arvense = experiment: Post-emergence tests/outdoors (Example C, Canada); conditions: outdoors, 30 g of a.i./ha + SAS (Canplus 411), 70 WP, 3 tests
Protocol: as §2

Avena fatua = experiment: Post-emergence tests/outdoors (Example C, Canada); conditions: outdoors
Protocol: as §2

Fallopia convolvulus = experiment: Post-emergence tests/outdoors (Example C, Canada); conditions: outdoors, 30 g of a.i./ha + SAS (Canplus 411), 70 WP, 5 tests
Protocol: as §2

Sinapis arvensis = experiment: Post-emergence tests/outdoors (Example C, Canada); conditions: outdoors, 30 g of a.i./ha + SAS (Canplus 411), 70 WP, 5 tests
Protocol: as §2

Compound: COc1nn(C(=O)NS(=O)(=O)c2ccccc2OC(F)(F)F)c(=O)n1C [(I)-Na-salt, 2-(2-trifluoromethoxy-phenylsulphonylaminocarbonyl)-4-methyl-5-methoxy-2,4-dihydro-3H-1,2,4-triazol-3-one]
- pest or weed control at 30 g/ha (Avena; 30 g of ai./ha): 95%
- pest or weed control at 250 g/ha (Avena; 250 g ai./ha): 99%
- degree of damage, Polygonum (Polygonum): 90%
- degree of damage, Bromus (Bromus): 100%
- pest or weed control at 30 g/ha (Alopecurus; 30 g of ai./ha): 100%
- pest or weed control at 250 g/ha (Alopecurus; 250 g ai./ha): 100%
- degree of damage, Setaria (Setaria; 30 g of ai./ha): 100%
- degree of damage, Setaria (Setaria; 250 g ai./ha): 99%
- herbicidal effect (%), Setaria viridis (Setaria viridis): 94%
- herbicidal effect (%), Thlaspi arvense (Thlaspi arvense): 93%
- herbicidal effect (%), Avena fatua (Avena fatua; 30 g of a.i./ha + SAS (Canplus 411), 70 WP, 6 tests): 88%
- activity against Avena fatua compared with comparative compounds (B) and (D), in words (Avena fatua; post-emergence): considerably stronger activity
- herbicidal effect (%), Fallopia convolvulus (Fallopia convolvulus): 73%
- herbicidal effect (%), Sinapis arvensis (Sinapis arvensis): 94%
